Measured values: PubChem BioAssay AID248 (DTP/NCI, 2004)
Where “and” joins values, the source holds several entries; their conditions need not be identical. Equal entries are not always repeated. Toxic doses and inconclusive results are not listed.

Tested on: L1210 leukemia ip in BDF1 mice, survival T/C
Experiment: NCI In Vivo Anticancer Drug Screen. Data for tumor model L1210 Leukemia (intraperitoneal) in B6D2F1 (BDF1) mice
Details: endpoint: mean survival time, higher = longer survival
Method in brief: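 Ratio derived from survival: compound-dosed mice over vehicle-dosed mice, all bearing a transplantable tumor.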

[1] = dose: 100.0 mg/kg/injection, schedule: Q01DX001 (ip), vehicle: carboxymethylcellulose (CMC)
[2] = dose: 12.5 mg/kg/injection, schedule: Q01DX009 (ip), vehicle: saline
[3] = dose: 25.0 mg/kg/injection, schedule: Q01DX009 (ip), vehicle: saline
[4] = dose: 50.0 mg/kg/injection, schedule: Q01DX009 (ip), vehicle: saline
[5] = dose: 100.0 mg/kg/injection, schedule: Q01DX001 (ip), vehicle: saline
[6] = dose: 200.0 mg/kg/injection, schedule: Q01DX001 (ip), vehicle: saline
[7] = dose: 400.0 mg/kg/injection, schedule: Q01DX001 (ip), vehicle: saline
[8] = dose: 100.0 mg/kg/injection, schedule: Q04DX003 (ip), vehicle: saline
[9] = dose: 200.0 mg/kg/injection, schedule: Q04DX003 (ip), vehicle: saline
[10] = dose: 100.0 mg/kg/injection, schedule: Q01DX009 (ip), vehicle: Klucel (hydroxypropylcellulose) (HPC)
[11] = dose: 200.0 mg/kg/injection, schedule: Q01DX009 (ip), vehicle: Klucel (hydroxypropylcellulose) (HPC)
[12] = dose: 400.0 mg/kg/injection, schedule: Q01DX009 (ip), vehicle: Klucel (hydroxypropylcellulose) (HPC)

For `Cc1ccc(NC(=O)N(CCCl)N=O)cc1`, the T/C (dose: 0.5 mg/kg/injection, schedule: Q01DX015 (ip), vehicle: carboxymethylcellulose (CMC)) was 103 % of control, the T/C (dose: 1.0 mg/kg/injection, schedule: Q01DX015 (ip), vehicle: carboxymethylcellulose (CMC)) was 107 % of control and the T/C (dose: 5.2 mg/kg/injection, schedule: Q01DX015 (ip), vehicle: carboxymethylcellulose (CMC)) was 169 % of control. The T/C (dose: 9.0 mg/kg/injection, schedule: Q01DX015 (ip), vehicle: carboxymethylcellulose (CMC)) was 165 % of control, the T/C (dose: 15.0 mg/kg/injection, schedule: Q01DX015 (ip), vehicle: carboxymethylcellulose (CMC)) was 206 % of control and the T/C (dose: 22.0 mg/kg/injection, schedule: Q01DX001 (ip), vehicle: carboxymethylcellulose (CMC)) was 161 % of control. The T/C (dose: 25.0 mg/kg/injection, schedule: Q01DX015 (ip), vehicle: carboxymethylcellulose (CMC)) was 152 % of control, the T/C (dose: 33.0 mg/kg/injection, schedule: Q01DX001 (ip), vehicle: carboxymethylcellulose (CMC)) was 152 % of control and the T/C (dose: 50.0 mg/kg/injection, schedule: Q01DX001 (ip), vehicle: carboxymethylcellulose (CMC)) was 171 % of control and 197 % of control. For the same compound, the T/C (dose: 75.0 mg/kg/injection, schedule: Q01DX001 (ip), vehicle: carboxymethylcellulose (CMC)) was 118 % of control and the T/C [1] was 86 % of control.

In the case of `NC(=S)N/N=C(\c1ccc(F)cc1)C1CC1`, the T/C (dose: 1.0 mg/kg/injection, schedule: Q01DX Z (ip), vehicle: methylcellulose (MC)) is reported as 92 % of control, the T/C (dose: 2.0 mg/kg/injection, schedule: Q01DX Z (ip), vehicle: methylcellulose (MC)) is reported as 101 % of control and the T/C (dose: 4.0 mg/kg/injection, schedule: Q01DX Z (ip), vehicle: methylcellulose (MC)) is reported as 97 % of control. For the same compound, the T/C (dose: 8.0 mg/kg/injection, schedule: Q01DX Z (ip), vehicle: methylcellulose (MC)) was 93 % of control and the T/C (dose: 8.0 mg/kg/injection, schedule: Q01DX Z (oral), vehicle: methylcellulose (MC)) was 100 % of control.

With `Brc1ncnc2nc[nH]c12` the T/C (dose: 62.5 mg/kg/injection, schedule: Q01DX Z (ip), vehicle: carboxymethylcellulose (CMC)) was 97 % of control, the T/C (dose: 75.0 mg/kg/injection, schedule: Q01DX Z (ip), vehicle: carboxymethylcellulose (CMC)) was 120 % of control and the T/C (dose: 100.0 mg/kg/injection, schedule: Q01DX Z (ip), vehicle: methylcellulose (MC)) was 111 % of control. The T/C (dose: 125.0 mg/kg/injection, schedule: Q01DX Z (ip), vehicle: carboxymethylcellulose (CMC)) was 121 % of control and the T/C (dose: 200.0 mg/kg/injection, schedule: Q01DX Z (ip), vehicle: methylcellulose (MC)) was 120 % of control.

`Nc1nc(=S)c2ncn(C3OCC(O)C(O)C3O)c2[nH]1` (centres undefined) was tested, and the T/C (dose: 5.0 mg/kg/injection, schedule: Q01DX001 (ip), vehicle: saline) was 101 % of control, the T/C (dose: 10.0 mg/kg/injection, schedule: Q01DX001 (ip), vehicle: saline) was 95 % of control and the T/C [2] was 98 % of control. For the same compound, the T/C (dose: 20.0 mg/kg/injection, schedule: Q01DX001 (ip), vehicle: saline) was 96 % of control, the T/C [3] was 97 % of control and the T/C (dose: 40.0 mg/kg/injection, schedule: Q01DX001 (ip), vehicle: saline) was 101 % of control. The T/C [4] was 98 % of control, the T/C (dose: 80.0 mg/kg/injection, schedule: Q01DX001 (ip), vehicle: saline) was 96 % of control and the T/C [5] was 98 % of control. The T/C (dose: 100.0 mg/kg/injection, schedule: Q01DX009 (ip), vehicle: saline) was 101 % of control, the T/C [6] was 102 % of control and the T/C [7] was 102 % of control.

In the case of `Nc1ncnc2c1nc(Br)n2C1OC(CO)C(O)C1O` (centres undefined), the T/C [8] is reported as 97 % of control, the T/C [9] is reported as 101 % of control and the T/C (dose: 400.0 mg/kg/injection, schedule: Q04DX003 (ip), vehicle: saline) is reported as 101 % of control.

For `CCCCCCc1cc(N=Nc2ccc(S(=O)(=O)Nc3occ(C)c3C)cc2)c(O)cc1O`, the T/C [1] was 93 % of control, the T/C (dose: 200.0 mg/kg/injection, schedule: Q01DX001 (ip), vehicle: carboxymethylcellulose (CMC)) was 93 % of control and the T/C (dose: 400.0 mg/kg/injection, schedule: Q01DX001 (ip), vehicle: carboxymethylcellulose (CMC)) was 98 % of control.

`O=C(Nc1ccccc1C(F)(F)F)OCCOc1ccc(Cl)cc1` was tested, and the T/C [10] was 98 % of control, the T/C [11] was 91 % of control and the T/C [12] was 87 % of control.

In the case of `Cc1nnc(NC(=O)CCl)s1`, the T/C (dose: 100.0 mg/kg/injection, schedule: Q01DX001 (ip), vehicle: other) is reported as 107 % of control, the T/C [10] is reported as 98 % of control and the T/C (dose: 100.0 mg/kg/injection, schedule: Q04DX003 (ip), vehicle: other) is reported as 98 % of control. For the same compound, the T/C (dose: 200.0 mg/kg/injection, schedule: Q01DX001 (ip), vehicle: other) was 100 % of control, the T/C (dose: 200.0 mg/kg/injection, schedule: Q04DX003 (ip), vehicle: other) was 106 % of control and the T/C (dose: 400.0 mg/kg/injection, schedule: Q01DX001 (ip), vehicle: other) was 98 % of control. For the same compound, the T/C (dose: 400.0 mg/kg/injection, schedule: Q04DX003 (ip), vehicle: other) was 101 % of control.

For `CCN1C(=O)c2ccccc2C1=O`, the T/C (dose: 50.0 mg/kg/injection, schedule: Q01DX009 (ip), vehicle: Klucel (hydroxypropylcellulose) (HPC)) was 107 % of control, the T/C [5] was 96 % of control and the T/C [10] was 94 % of control. The T/C [6] was 98 % of control, the T/C [11] was 89 % of control and the T/C [7] was 88 % of control.

With `c1ccc(-c2nnn(CCn3nnc(-c4ccccc4)n3)n2)cc1` the T/C (dose: 100.0 mg/kg/injection, schedule: Q04DX003 (ip), vehicle: Klucel (hydroxypropylcellulose) (HPC)) was 102 % of control, the T/C (dose: 200.0 mg/kg/injection, schedule: Q04DX003 (ip), vehicle: Klucel (hydroxypropylcellulose) (HPC)) was 104 % of control and the T/C (dose: 400.0 mg/kg/injection, schedule: Q04DX003 (ip), vehicle: Klucel (hydroxypropylcellulose) (HPC)) was 98 % of control.

`COc1ccc(N=Nc2cc(C)c(C)cc2O)cc1` was tested, and the T/C [10] was 96 % of control, the T/C [11] was 103 % of control and the T/C [12] was 94 % of control.

In the case of `CC(=O)OCC1(C[N+](C)(C)C)CCC1`, the T/C [5] is reported as 103 % of control, the T/C [8] is reported as 95 % of control and the T/C [6] is reported as 97 % of control. For the same compound, the T/C [9] was 94 % of control and the T/C [7] was 110 % of control.

With `CC1(C)C(=O)NC(=O)C1(C)C` the T/C (dose: 1.56 mg/kg/injection, schedule: Q03HX024 (ip), vehicle: saline) was 106 % of control, the T/C (dose: 3.12 mg/kg/injection, schedule: Q03HX024 (ip), vehicle: saline) was 100 % of control and the T/C (dose: 3.12 mg/kg/injection, schedule: Q04DX003 (ip), vehicle: saline) was 100 % of control. For the same compound, the T/C (dose: 4.12 mg/kg/injection, schedule: Q01DX009 (ip), vehicle: saline) was 100 % of control, the T/C (dose: 6.25 mg/kg/injection, schedule: Q01DX009 (ip), vehicle: saline) was 106 % of control and the T/C (dose: 6.25 mg/kg/injection, schedule: Q03HX024 (ip), vehicle: saline) was 101 % of control. The T/C (dose: 6.25 mg/kg/injection, schedule: Q04DX003 (ip), vehicle: saline) was 104 % of control, the T/C (dose: 8.25 mg/kg/injection, schedule: Q01DX009 (ip), vehicle: saline) was 100 % of control and the T/C [2] was 102 % of control. The T/C (dose: 12.5 mg/kg/injection, schedule: Q03HX024 (ip), vehicle: saline) was 100 % of control, the T/C (dose: 12.5 mg/kg/injection, schedule: Q04DX003 (ip), vehicle: saline) was 104 % of control and 108 % of control and the T/C (dose: 16.5 mg/kg/injection, schedule: Q01DX009 (ip), vehicle: saline) was 92 % of control. For the same compound, the T/C (dose: 18.75 mg/kg/injection, schedule: Q01DX001 (ip), vehicle: saline) was 105 % of control, the T/C [3] was 106 % of control and the T/C (dose: 25.0 mg/kg/injection, schedule: Q04DX003 (ip), vehicle: saline) was 102 % of control and 105 % of control. For the same compound, the T/C (dose: 33.0 mg/kg/injection, schedule: Q01DX009 (ip), vehicle: saline) was 105 % of control, the T/C (dose: 37.5 mg/kg/injection, schedule: Q01DX001 (ip), vehicle: saline) was 108 % of control and the T/C [4] was 102 % of control. The T/C (dose: 50.0 mg/kg/injection, schedule: Q04DX003 (ip), vehicle: saline) was 100 % of control and 102 % of control, the T/C (dose: 66.0 mg/kg/injection, schedule: Q01DX009 (ip), vehicle: saline) was 90 % of control and the T/C (dose: 75.0 mg/kg/injection, schedule: Q01DX001 (ip), vehicle: saline) was 108 % of control. The T/C [8] was 94 % of control and the T/C (dose: 150.0 mg/kg/injection, schedule: Q01DX001 (ip), vehicle: saline) was 103 % of control.
